Measured values from ChEMBL document CHEMBL1132039, “Isotope edited NMR studies of glycosidases: design and synthesis of a novel glycosidase inhibitor” (Bioorg Med Chem Lett, 1999).

Assays:
[1] = molecular target: Lysosomal alpha-glucosidase (Homo sapiens, UniProt P10253); test: Inhibitory potency for alpha-glucosidase was determined at concentration up to 3.0 mM; No inhibition; set-up: species or system Saccharomyces cerevisiae
[2] = Inhibitory potency against glucosidase was determined.; set-up: species or system Saccharomyces cerevisiae

SMILES	Ki [1]	Ki [2] [µM]
OC[C@@H]1[C@@H](O)[C@H](O)[C@@H](O)CN1Cc1ccccc1	Not Active	–
NCC(=O)N1C[C@H](O)[C@@H](O)[C@H](O)[C@H]1CO	–	23
